Earlier results, collected in patent US20040248775A1, “Methods for screening inhibitors of apoptosis” (Wyeth, priority 2003, published 2004).

Biological target: T1, Apaf-1 (Homo sapiens, UniProt O14727)
T1 sequence (O14727 1-1248): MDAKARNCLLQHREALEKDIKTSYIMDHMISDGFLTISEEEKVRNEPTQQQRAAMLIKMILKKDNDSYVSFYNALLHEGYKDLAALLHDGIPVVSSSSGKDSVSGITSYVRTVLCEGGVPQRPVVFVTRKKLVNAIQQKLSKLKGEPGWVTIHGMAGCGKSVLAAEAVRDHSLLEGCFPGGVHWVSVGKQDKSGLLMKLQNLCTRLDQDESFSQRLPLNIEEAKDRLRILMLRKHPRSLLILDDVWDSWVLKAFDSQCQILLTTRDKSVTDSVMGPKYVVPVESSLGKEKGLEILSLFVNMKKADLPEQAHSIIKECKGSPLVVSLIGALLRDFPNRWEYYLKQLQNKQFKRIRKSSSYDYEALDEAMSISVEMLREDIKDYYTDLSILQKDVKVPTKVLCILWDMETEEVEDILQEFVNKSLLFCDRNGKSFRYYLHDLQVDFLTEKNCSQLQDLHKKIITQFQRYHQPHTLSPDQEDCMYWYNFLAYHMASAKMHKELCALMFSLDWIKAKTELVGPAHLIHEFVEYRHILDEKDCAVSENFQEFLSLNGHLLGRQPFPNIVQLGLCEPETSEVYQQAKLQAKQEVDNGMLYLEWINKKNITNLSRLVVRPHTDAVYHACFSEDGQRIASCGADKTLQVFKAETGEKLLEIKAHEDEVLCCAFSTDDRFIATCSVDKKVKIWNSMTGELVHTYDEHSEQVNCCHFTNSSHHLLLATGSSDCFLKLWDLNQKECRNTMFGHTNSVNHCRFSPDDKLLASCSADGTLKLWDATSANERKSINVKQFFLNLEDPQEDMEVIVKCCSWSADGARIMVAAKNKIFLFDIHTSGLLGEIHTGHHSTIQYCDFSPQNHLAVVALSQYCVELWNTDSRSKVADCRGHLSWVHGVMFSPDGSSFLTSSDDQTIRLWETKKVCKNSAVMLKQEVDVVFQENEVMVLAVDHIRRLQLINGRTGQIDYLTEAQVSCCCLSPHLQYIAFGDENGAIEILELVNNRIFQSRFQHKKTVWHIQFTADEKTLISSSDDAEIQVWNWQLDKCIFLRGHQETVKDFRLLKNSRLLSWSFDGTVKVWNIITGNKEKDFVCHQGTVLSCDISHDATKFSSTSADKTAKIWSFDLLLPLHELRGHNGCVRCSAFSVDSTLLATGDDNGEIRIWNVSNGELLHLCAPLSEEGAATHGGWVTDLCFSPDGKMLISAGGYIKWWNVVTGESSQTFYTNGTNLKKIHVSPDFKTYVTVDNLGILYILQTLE
Conditions: Jiang et al., 2000; cited from earlier work

Compound: Nc1ncnc2c1ncn2[C@H]1C[C@H](O)[C@@H](COP(=O)(O)OP(=O)(O)OP(=O)(O)O)O1 [dATP]
- affinity of purine nucleotides for Apaf-1: greatest affinity
